The source of these data is patent US10626106B2, “Substituted pyrrolidine amides I” (Gruenenthal GmbH, priority 2017, dated 2020).

Bounds are passed on as bounds.

One may read the inhibition as the relative decrease from the control value, in per cent.

In the first experiment the target is T1, Human Glucocorticoid Receptor (hGR) (Homo sapiens, UniProt P04150).
T1 construct: the resultant supernatant (=cytosol of IM9 cells) was centrifuged at 103,000 g for 60 minutes; host or cells: IM9 human lymphoblast cell line (cytosol fraction)
T1 sequence (P04150 1-777): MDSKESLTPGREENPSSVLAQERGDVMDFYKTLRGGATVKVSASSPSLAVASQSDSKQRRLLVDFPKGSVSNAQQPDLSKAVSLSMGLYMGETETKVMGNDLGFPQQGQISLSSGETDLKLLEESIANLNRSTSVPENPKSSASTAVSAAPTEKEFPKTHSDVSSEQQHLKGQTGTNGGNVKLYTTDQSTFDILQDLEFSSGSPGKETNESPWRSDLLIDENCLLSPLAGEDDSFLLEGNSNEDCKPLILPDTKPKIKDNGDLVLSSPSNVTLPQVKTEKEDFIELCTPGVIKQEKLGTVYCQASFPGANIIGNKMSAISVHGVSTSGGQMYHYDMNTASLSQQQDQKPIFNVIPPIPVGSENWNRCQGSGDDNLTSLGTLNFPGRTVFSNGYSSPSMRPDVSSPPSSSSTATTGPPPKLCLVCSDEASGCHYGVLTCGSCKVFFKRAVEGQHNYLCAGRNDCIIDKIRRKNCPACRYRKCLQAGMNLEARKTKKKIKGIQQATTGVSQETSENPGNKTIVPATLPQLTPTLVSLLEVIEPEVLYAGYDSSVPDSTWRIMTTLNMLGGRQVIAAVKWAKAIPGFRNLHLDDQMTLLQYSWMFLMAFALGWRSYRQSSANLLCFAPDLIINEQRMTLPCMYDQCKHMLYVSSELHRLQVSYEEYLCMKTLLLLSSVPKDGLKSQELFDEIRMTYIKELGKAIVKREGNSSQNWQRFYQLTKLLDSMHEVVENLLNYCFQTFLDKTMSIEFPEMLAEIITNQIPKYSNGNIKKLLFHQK
Briefly: Human Glucocorticoid Receptor (hGR) Ligand-Binding Assay (competitive 3H-dexamethasone binding, IM9 cytosol). Particulars: compound at 1 μM; competition with 3H-dexamethasone; cytosol of IM9 cells; read-out: % inhibition hGR at 1 μM. From the text: Human Glucocorticoid Receptor (hGR) Ligand-Binding Assay
Potential selective glucocorticoid receptor modulators of this intervention can be tested for their binding affinity at the glucocorticoid receptor using the binding assay described below.
Preferably, the glucocortitcoid receptor extracted from cytosol of IM9 cells is used for competitive radioligand binding assays to calculate the IC50 values and binding affinity (Ki value) of the compounds according to the present invention. Preferably, a fixed concentration of the radioligand 3H-dexamethasone and a range of concentrations of compounds according to the present invention (as unlabeled competitors of dexamethasone) are mixed with the extracted glucocorticoid receptor in order to measure the potency/affinity with which they compete for the binding of the radioligand. Preferably, by using competition curves the IC50 which is the concentration of competing ligand that displaces 50% of the specific binding of the radioligand is determined. Finally this IC50 value is converted to a Ki value.
The human lymphoblast cell line IM9 (ATCC, Bethesda, Md.) were cultivated in RPMI 1640 media containing 10% fetal bovine serum, penicillin (100 U/ml), streptomycin (100 μg/ml), and 2 mM L-glutamine at […] and 7% CO2 in a humidified incubator. Cells were centrifuged for 10 minutes at 1500 g and were washed in PBS and repelleted. Cell were then resuspended in homogenization buffer consisting of: 10 mM TES, 10 mM sodium molybdate, 1 mM EDTA, pH 7.4, 20 mM 2-mercaptoethanol, and 10% glycerol. Disruption of the cells was performed by nitrogen cavitation using 2×15 minutes at 600 to 750 psi nitrogen in a N2 cavitator at 0° C. The cell preparation was then centrifuged at 27,000 g for 15 minutes, and the resultant supernatant (=cytosol of IM9 cells) was centrifuged at 103,000 g for 60 minutes at 4° C. The amount of protein in the supernatant fraction was determined using a BCA assay kit and aliquots were snap frozen in a dry ice-acetone bath and stored at −70° C. Competitive binding assays were done in duplicate in homogenization buffer with a total volume of 200 μl. To this end, 1 mg of IM9 cytosol, 0.05 μCi (1.5 nM) of 3H-dexamethasone […] and compounds according to the present invention (=unlabeled competitors of dexamethasone; range of concentrations) were mixed. The reaction was stopped after incubation at 0° C. for 16 to 18 hours by the addition of 100 μl of a charcoal-dextran mixture (2% activated charcoal, 0.5% dextran in 10 mM Tris, 1 mM EDTA, pH 7.4). Another incubation step at 0° C. for 10 minutes followed before the samples were centrifuged for 5 minutes at 8200 g. 100 μl of the supernatant) was finally assayed for radioactivity by liquid scintillationspectrometry, and the IC50 values were determined graphically and were converted to Ki values.
`Cc1ccccc1[C@@H]1[C@@H](NC(=O)C2CC2)CC(=O)N1c1ccc2c(cnn2-c2ccc(=O)n(C)c2)c1` [Example 41, N-((2R,3S)-1-(1-(1-methyl-6-oxo-1,6-dihydropyridin-3-yl)-1H-indazol-5-yl)-5-oxo-2-(o-tolyl)pyrrolidin-3-yl)cyclopropanecarboxamide]: the inhibition at 1 µM was 40 to 60%.

`Cn1ccc(C(=O)N[C@H]2CC(=O)N(c3ccc4c(cnn4-c4ccc(=O)n(C)c4)c3)[C@@H]2c2ccccc2)n1` [Example 45, 1-methyl-N-[(2R,3S)-1-[1-(1-methyl-6-oxo-3-pyridyl)indazol-5-yl]-5-oxo-2-phenyl-pyrrolidin-3-yl]pyrazole-3-carboxamide]: the inhibition at 1 µM was in the range of 60 to 85%.

As to `Cn1cc(-n2ncc3cc(N4C(=O)C[C@H](NC(=O)C5(C)CC5)[C@H]4c4ccccc4)ccc32)ccc1=O` [Example 26, 1-methyl-N-((2R,3S)-1-(1-(1-methyl-6-oxo-1,6-dihydropyridin-3-yl)-1H-indazol-5-yl)-5-oxo-2-phenylpyrrolidin-3-yl)cyclopropane-1-carboxamide], the inhibition at 1 µM was in the range of 60 to 85%.

With `Cn1cc(-n2ncc3cc(N4C(=O)C[C@H](NC(=O)[C@H]5CCCO5)[C@H]4c4ccccc4)ccc32)ccc1=O` [Example 48, (R)—N-[(2R,3S)-1-[1-(1-methyl-6-oxo-3-pyridyl)indazol-5-yl]-5-oxo-2-phenyl-pyrrolidin-3-yl]tetrahydrofuran-2-carboxamide], the inhibition at 1 µM fell in the range of 60 to 85%.

Regarding `Cn1cc(Cn2ncc3cc(N4C(=O)C[C@H](NC(=O)C(C)(F)F)C4c4ccccc4)ccc32)ccc1=O` (stereo in doubt) [Example 34, trans-2,2-difluoro-N-(1-(1-((1-methyl-6-oxo-1,6-dihydropyridin-3-yl)methyl)-1H-indazol-5-yl)-5-oxo-2-phenylpyrrolidin-3-yl)propanamide], the inhibition at 1 µM lay within 40 to 60%.

For the compound `Cc1cnc(C(=O)N[C@H]2CC(=O)N(c3ccc4c(cnn4-c4ccc(=O)n(C)c4)c3)[C@@H]2c2ccccc2)s1` (relative stereo) [Example 13, 5-methyl-N-(trans-1-(1-(1-methyl-6-oxo-1,6-dihydropyridin-3-yl)-1H-indazol-5-yl)-5-oxo-2-phenylpyrrolidin-3-yl)thiazole-2-carboxamide], the inhibition at 1 µM is greater than 85%.

On to `COc1cc([C@@H]2[C@@H](NC(=O)C(C)(F)F)CC(=O)N2c2ccc3c(cnn3-c3ccc(=O)n(C)c3)c2)ccn1` [Example 42, 2,2-difluoro-N-((2R,3S)-2-(2-methoxypyridin-4-yl)-1-(1-(1-methyl-6-oxo-1,6-dihydropyridin-3-yl)-1H-indazol-5-yl)-5-oxopyrrolidin-3-yl)propanamide], for which the inhibition at 1 µM lay within 60 to 85%.

Take `Cn1cc(-n2ncc3cc(N4C(=O)C[C@H](NC(=O)c5cscn5)[C@H]4c4ccccc4)ccc32)ccc1=O` [Example 44, N-[(2R,3S)-1-[1-(1-methyl-6-oxo-3-pyridyl)indazol-5-yl]-5-oxo-2-phenyl-pyrrolidin-3-yl]thiazole-4-carboxamide]: the inhibition at 1 µM lay within 60 to 85%.

The same experiment, now with this note: read-out: % inhibition hGR at 1 μM.
On to `Cn1cc(-n2ncc3cc(N4C(=O)C[C@H](NC(=O)C(C)(F)F)C4c4ccccc4)ccc32)cn1` (stereo in doubt) [Example 46, N-(trans-1-(1-(1-methyl-1H-pyrazol-4-yl)-1H-indazol-5-yl)-5-oxo-2-phenylpyrrolidin-3-yl)-2,2-difluoropropanamide], for which the inhibition at 1 µM was greater than 85%.

In the case of `CC(F)(F)C(=O)N[C@H]1CC(=O)N(c2ccc3c(cnn3-c3cccnc3)c2)C1c1ccccc1` (stereo in doubt) [Example 7, trans-2,2-difluoro-N-(5-oxo-2-phenyl-1-(1-(pyridin-3-yl)-1H-indazol-5-yl)pyrrolidin-3-yl)propanamide], the inhibition at 1 µM is greater than 85%.

For `Cc1cc(-n2ncc3cc(N4C(=O)C[C@H](NC(=O)C(C)(F)F)C4c4ccccc4)ccc32)ccn1` (stereo in doubt) [Example 25, trans-2,2-difluoro-N-(1-(1-(2-methylpyridin-4-yl)-1H-indazol-5-yl)-5-oxo-2-phenylpyrrolidin-3-yl)propanamide], the inhibition at 1 µM was greater than 85%.
